From publication doi:10.1101/2024.08.19.608619, “Discovery of potent SARS-CoV-2 nsp3 macrodomain inhibitors uncovers lack of translation to cellular antiviral response” (bioRxiv, 2024)
Converted amounts (≈) assume the structure as drawn.

Experiments:
[1] = Hepatic microsomal stability, HLM; type: in vitro ADME, human; conditions: In vitro human liver microsomal stability; for perc_remaining_no_cofactor: no cofactor
[2] = Hepatic microsomal stability, MLM; type: in vitro ADME; conditions: In vitro mouse liver microsomal stability; for perc_remaining_no_cofactor: no cofactor
LogD = conditions: pH 7.4; In vitro LogD
[3] = In vitro kinetic solubility; conditions: In vitro kinetic solubility, ph 7.4
[4] = Permeability Papp (AB) MDR1/MDCKII; conditions: In vitro MDR1-MDCKII permeability; for papp_a_to_b_mean: A to B; for perc_recovery_a_to_b_mean: recovery A to B

| SMILES | clint [1] | perc_remaining [1] | t_half [1] | perc_remaining_no_cofactor [1] | clint [2] | perc_remaining [2] | t_half [2] | perc_remaining_no_cofactor [2] | logd (LogD) | solubility_mean [3] | papp_a_to_b_mean ([4]; mean) | perc_recovery_a_to_b_mean ([4]; mean) | papp_a_to_b_mean ([4]; no inhibitor) | perc_recovery_a_to_b_mean ([4]; no inhibitor) |
| --- | --- | --- | --- | --- | --- | --- | --- | --- | --- | --- | --- | --- | --- | --- |
| CC(C)[C@H](Nc1ncnc2[nH]cc(C(N)=O)c12)c1ccc2c(c1)OCCO2 (racemic) [ASAP-0008399] | 143.0 µL/min/mg | 9.0% | 11.7 min | 110.0% | 142.0 µL/min/mg | 9.0% | 11.7 min | 98.0% | 3.2 | 375 µM (≈ 138 µg/mL) | 11.1 ×10⁻⁶ cm/s | 90.0% | – | – |
| CC(C)[C@H](Nc1ncnc2[nH]c(C(=O)N[C@@H]3CCN(C)C3)cc12)c1ccc2c(c1)S(=O)(=O)CCC2 [ASAP-0011196] | 3.0 µL/min/mg | 98.0% | 626.9 min | 100.0% | 3.0 µL/min/mg | 104.0% | 648.8 min | 107.0% | 1.4 | 366 µM (≈ 182 µg/mL) | – | – | 0.707 ×10⁻⁶ cm/s | 103.0% |
| CC(C)[C@@H](Nc1ncnc2[nH]c(-c3cnn(CC(=O)N(C)C)c3)cc12)c1ccc2c(c1)S(=O)(=O)CCC2 [ASAP-0013747] | 297.0 µL/min/mg | 1.0% | 5.6 min | 99.0% | 31.0 µL/min/mg | 59.0% | 53.8 min | 102.0% | 2.2 | 256 µM (≈ 134 µg/mL) | – | – | 0.555 ×10⁻⁶ cm/s | 78.8% |
| CC(C)[C@H](Nc1ncnc2[nH]c(-c3cnn(CC(=O)N(C)C)c3)cc12)c1ccc2c(c1)OCCO2 (single isomer, unassigned) [ASAP-0013833] | 500.0 µL/min/mg | 0.0% | 3.3 min | 115.0% | 35.0 µL/min/mg | 54.0% | 48.1 min | 102.0% | 2.9 | 19 µM (≈ 9.04 µg/mL) | – | – | 2.05 ×10⁻⁶ cm/s | 82.0% |
| CNC(=O)c1cc2c(N[C@H](c3ccc4c(c3)S(=O)(=O)CCC4)C(C)C)ncnc2[nH]1 (single isomer, unassigned) [ASAP-0012340] | 67.0 µL/min/mg | 33.0% | 25.0 min | 107.0% | 47.0 µL/min/mg | 42.0% | 35.3 min | 106.0% | 2.3 | 374 µM (≈ 160 µg/mL) | – | – | 0.891 ×10⁻⁶ cm/s | 74.2% |
| CC(C)[C@H](Nc1ncnc2[nH]c(-c3cnn(CC(N)=O)c3)cc12)c1ccc2c(c1)OCCO2 [ASAP-0008449] | 47.0 µL/min/mg | 43.0% | 35.4 min | 102.0% | 16.0 µL/min/mg | 80.0% | 103.7 min | 104.0% | 2.9 | 280 µM (≈ 125 µg/mL) | – | – | 1.09 ×10⁻⁶ cm/s | 87.8% |
| CC(C)(C)[C@H](Nc1ncnc2[nH]c(-c3cnn(CC(N)=O)c3)cc12)c1ccc2c(n1)OCCO2 (single isomer, unassigned) [ASAP-0011159] | 27.0 µL/min/mg | 64.0% | 60.8 min | 95.0% | 10.0 µL/min/mg | 88.0% | 162.3 min | 116.0% | 2.7 | 372 µM (≈ 172 µg/mL) | – | – | 1.02 ×10⁻⁶ cm/s | 95.8% |
| CC(C)(C)[C@H](Nc1ncnc2[nH]c(-c3cnn(CC(N)=O)c3)cc12)c1ccc2c(c1)OCCO2 (single isomer, unassigned) [ASAP-0012332] | 100.0 µL/min/mg | 18.0% | 16.8 min | 109.0% | 39.0 µL/min/mg | 54.0% | 43.1 min | 106.0% | 3.1 | 104 µM (≈ 48 µg/mL) | – | – | 1.01 ×10⁻⁶ cm/s | 76.5% |
| CNC(=O)c1c[nH]c2ncnc(N[C@H](c3ccc4c(c3)S(=O)(=O)CCC4)C(C)C)c12 (racemic) [ASAP-0008641] | 131.0 µL/min/mg | 11.0% | 12.8 min | 104.0% | 192.0 µL/min/mg | 3.0% | 8.7 min | 92.0% | 2.5 | 390 µM (≈ 167 µg/mL) | 2.23 ×10⁻⁶ cm/s | 79.1% | – | – |
| CC(C)[C@H](Nc1ncnc2[nH]c(-c3cnn(CC(N)=O)c3)cc12)c1ccc2c(c1)NC(=O)CO2 (racemic) [ASAP-0008621] | 17.0 µL/min/mg | 73.0% | 99.2 min | 91.0% | 11.0 µL/min/mg | 84.0% | 155.8 min | 102.0% | 2.5 | 25 µM (≈ 11.5 µg/mL) | 1.36 ×10⁻⁶ cm/s | 98.0% | – | – |
| CC(C)[C@H](Nc1ncnc2[nH]c(C(=O)N[C@H]3CCN(C)C3)cc12)c1ccc2c(c1)S(=O)(=O)CCC2 [ASAP-0012334] | 11.0 µL/min/mg | 80.0% | 149.8 min | 98.0% | 1.0 µL/min/mg | 98.0% | 1540.5 min | 97.0% | 1.4 | 396 µM (≈ 197 µg/mL) | – | – | 0.175 ×10⁻⁶ cm/s | 89.9% |
| CC(C)(C)[C@H](Nc1ncnc2[nH]c(-c3cnn(CC(N)=O)c3)cc12)c1ccc2c(c1)OCCO2 (racemic) [ASAP-0008581] | 133.0 µL/min/mg | 11.0% | 12.6 min | 87.0% | 47.0 µL/min/mg | 46.0% | 35.2 min | 107.0% | 3.2 | 195 µM (≈ 90 µg/mL) | 1.66 ×10⁻⁶ cm/s | 94.7% | – | – |
| CC(C)(C)[C@H](Nc1ncnc2[nH]c(-c3cnn(CC(N)=O)c3)cc12)c1ccc2c(n1)OCCO2 (racemic) [ASAP-0008648] | 36.0 µL/min/mg | 55.0% | 46.0 min | 96.0% | 31.0 µL/min/mg | 60.0% | 53.1 min | 90.0% | 2.7 | 48 µM (≈ 22.2 µg/mL) | 0.822 ×10⁻⁶ cm/s | 88.8% | – | – |
| CC(C)[C@@H](Nc1ncnc2[nH]c(-c3cnn(CC(N)=O)c3)cc12)c1ccc2c(n1)OCCO2 [ASAP-0008646] | 14.0 µL/min/mg | 77.0% | 120.2 min | 95.0% | 12.0 µL/min/mg | 83.0% | 145.2 min | 104.0% | 2.4 | 385 µM (≈ 173 µg/mL) | 2.46 ×10⁻⁶ cm/s | 73.0% | – | – |
| CNC(=O)c1c[nH]c2ncnc(N[C@@H](c3ccc4c(c3)S(=O)(=O)CCC4)C(C)C)c12 [ASAP-0011156] | 108.0 µL/min/mg | 17.0% | 15.4 min | 94.0% | 113.0 µL/min/mg | 15.0% | 14.7 min | 108.0% | 2.6 | 204 µM (≈ 87.2 µg/mL) | – | – | 0.857 ×10⁻⁶ cm/s | 78.7% |
| CC(C)[C@H](Nc1ncnc2[nH]c(-c3cnn(CC(N)=O)c3)cc12)c1ccc2c(c1)OCCO2 (single isomer, unassigned) [ASAP-0008450] | 238.0 µL/min/mg | 2.0% | 7.0 min | 90.0% | 42.0 µL/min/mg | 49.0% | 40.0 min | 98.0% | 2.9 | 332 µM (≈ 149 µg/mL) | 1.87 ×10⁻⁶ cm/s | 90.9% | – | – |
| COCCNC(=O)c1c[nH]c2ncnc(N[C@H](c3ccc4c(c3)S(=O)(=O)CCC4)C(C)C)c12 (racemic) [ASAP-0008650] | 540.0 µL/min/mg | 0.0% | 3.1 min | 106.0% | 888.0 µL/min/mg | 0.0% | 1.9 min | 99.0% | 2.8 | 378 µM (≈ 178 µg/mL) | 1.62 ×10⁻⁶ cm/s | 73.3% | – | – |
